The values below are quoted from earlier work in US7807599B2, “Hydroconversion processes employing multi-metallic catalysts and method for making thereof” (Chevron U. S. A. Inc., priority 2007, dated 2010).

In general, LD50 refers to the dose expected to kill half of the subjects tested.

In the series the test system is rats. To be noted: as single oral dose to rats.

Consider `O=CC(=O)O` [glyoxylic], for which the 50% lethal dose (LD50) is 3000 mg/kg.
